From patent US20090221622A1, “TOPOTECAN READY TO USE SOLUTIONS” (EAGLE PHARMACEUTICALS, INC., priority 2008, published 2009)
Read-outs that look alike come from different tables or passages of the source.

Tests used:
[1] = aqueous media; cited from earlier work
[2] = Solubility of 10-HCPT in aqueous and acid media
[3] = Procedure: […] […] Quantitatively, 0.01 area % is equivalent to 0.1 μg/mL of 10-HPCT.
The solution was filled into either flint glass vials or polyethylene vials. One portion of the solution was transferred into 5 ml glass vials and another portion was placed into 5 ml PE vials.

[4] = in vivo; cited from earlier work

SMILES	Solubility of 10-HCPT [1]	Solubility of 10-HCPT ([2]; 0.01N HCl containing 3% benzyl alcohol)	Increase of solubility of 10-HCPT ([2]; 0.01N HCl containing 3% benzyl alcohol versus about 2 ng/mL) [fold]	Solubility of 10-HCPT ([2]; 0.1 N HCl) [μg/mL]	Solubility of 10-HCPT ([2]; 0.1 N MSA)	Saturation solubility of 10 HCPT ([2]; 10% lactic acid) [µg/mL]	Solubility of 10 HCPT ([2]; 20% lactic acid solution) [µg/mL]	Concentration of 10-HCPT reached before it precipitates ([2]; formulations prepared in hydrochloric acid, pH 1.5 or less)	Solubility of 10-HCPT ([2]; starting value, without benzyl alcohol)	10-HCPT formed by degradation ([3]; 5 weeks, 1 mg/ml, pH 3.2) [%]	10-HCPT formed by degradation ([3]; 12 weeks, 1 mg/mL, pH 1) [%]	10-HCPT formed by degradation ([3]; 12 weeks, 1 mg/ml, pH 2) [%]	Dose limiting toxicity [4]
CC[C@@]1(O)C(=O)OCc2c1cc1n(c2=O)Cc2cc3cc(O)ccc3nc2-1 [Example 10-HCPT, 10-hydroxycamptothecin]	about 2 ng/ml	about 10 μg/mL	~5000	6	about 6 μg/mL	6.4	15	about 4 μg/mL	about 2 ng/mL	–	–	–	–
CC[C@@]1(O)C(=O)OCc2c1cc1n(c2=O)Cc2cc3c(CN(C)C)c(O)ccc3nc2-1 [Topotecan]	–	–	–	–	–	–	–	–	–	5.64	0.07	0.6	neutropenia (bone marrow suppression) and thrombocytopenia
